Experimental data taken from US20260364072A1, “METHODS FOR PROMOTING EXPANSION OF HUMAN CD34+ CELLS IN VIVO AND FOR PROMOTING NEURAL REGENERATION” (THE REGENTS OF THE UNIVERSITY OF CALIFORNIA, priority 2023, published 2026).

Legend:
[1] = system: ADAR1, CD44-012, PTK2B-202, MCL1 transcripts; assay: Transcripts in human CD34+ cells from treated engrafted sAML mice (qRT-PCR, RNA-seq); type: in vivo
Protocol: FIG. […]
For RNA editing analyses of whole transcriptome sequencing data, previous datasets were utilized from CD34^+ cells isolated from the spleens of sAML50261-engrafted mice treated once weekly with Rebecsinib in a dose-response assay (5 or 10 mg/kg),^14 along with CD34^+ cells harvested from mice that were serially transplanted with CD34+ cells from sAML50261-engrafted mice that had been treated twice weekly with Rebecsinib at 10 mg/kg (no further treatment was delivered to serial transplant recipients). Due to limiting number of cells remaining after treatment, cells were pooled from n=4 to 5 mice per condition for sequencing. RNA editing analysis was performed as previously described.^5
For quantitative analysis of splice isoform expression, RNA editing rates, and whole gene expression by qRT-PCR, cells or tissue fragments were harvested in RNA lysis buffer and total RNA was extracted using RNeasy mini or micro extraction kits (QIAGEN, Germantown, MD) following the manufacturer's protocol including a DNase incubation step to digest any trace genomic DNA present. Levels of ADAR1 variants and LSC-specific transcripts were quantified by qRT-PCR as previously described.^14 RNA-editing site-specific qRT-PCR (RESSqPCR) was performed for variants in AZIN1 transcripts.^53 Additional species-specific primers were also designed to quantify intron retention rates in cells treated with Rebecsinib as a biomarker of response to RNA splicing modulation. Specifically, for the two-step SYBR-green based assays, as previously described,^7,14,53 100-1000 ng of RNA were subjected to cDNA synthesis using the SUPERSCRIPT III™ (ThermoFisher Scientific) kit followed by qRT-PCR using SYBR GreenER (ThermoFisher Scientific) master mix according to the manufacturer's recommended procedures. qRT-PCR was performed using SYBR GREENER SUPER MIX™ (Life Technologies) on BioRad iQ5™, C1000 TOUCH™, or BioRad CFX384™ instruments. Human splice isoform-specific, RNA editing site-specific qPCR (RESSqPCR)^53. Primer sets that have not been previously published were designed and tested for efficiency followed by analyses in samples exposed to Rebecsinib, with species-specific HPRT primers used as controls. Samples with Ct<35 for the species-specific reference gene, HPRT, were included in analyses. Relative mRNA expression values were calculated using the 2^−ΔCT method, with normalization to untreated or vehicle-treated controls.^54
In humanized mouse models, sAML cells (CD34^+) from two unique […] patient samples that were splicing factor mutated or unmutated were utilized, including sAML50261 and sAML2008-5.^14 For in vivo efficacy and therapeutic index studies, sAML CD34^+ cells, or normal human cord blood-derived or aged bone marrow-derived HSPCs (CD34^+), were transplanted (50,000-200,000 cells per mouse) intrahepatically into neonatal Rag2^−/−γc^−/− mice, or intravenously into adult NSG-SGM3 mice (Jackson Laboratories, Bar Harbor, ME). A subset of experiments was performed with normal aged bone marrow cells that were transduced with the lentiviral ADAR1 nanoluc-GFP reporter vector prior to transplant. For transplantation into adult mice, animals were irradiated with ^137Cs at a dose of 150 cGy 24 hr before IV transplantation. After engraftment levels reached >1% human CD45^+ hematopoietic cells in the peripheral blood, animals were distributed among treatment groups for treatment with Rebecsinib or vehicle control essentially as previously described, with an increased dosing regimen of twice weekly (versus once weekly in prior studies)^14 and an optimized in vivo formulation (2% w/w EtOH, 5% w/v KOLLIPHOR HS™ 15 in 0.9% saline). […]

[2] = system: normal HSPCs; assay: Normal cord blood HSPC engrafted mice; type: in vivo, human cells in Rag2-/-γc-/- mice
Protocol: To determine the sensitivity of normal HSPCs to Rebecsinib, human cord blood-derived CD34+ cells were transplanted into Rag2^−/−γc^−/− mice. After human cell engraftment was established (6 to 12 weeks), mice were treated with Rebecsinib twice-weekly for two weeks at doses equivalent to the maximum doses selected for in vivo LSC assays. The frequency of CD45^+ hematopoietic cells in bone marrow, peripheral blood, spleen, and thymus were unchanged between vehicle and Rebecsinib-treated groups that received a dose of 10 mg/kg. […] Thus, a dose of 10 mg/kg in mice is sufficient to reduce in vivo sAML LSC burden while sparing normal HSPC development.
In humanized mouse models, sAML cells (CD34^+) from two unique […] patient samples that were splicing factor mutated or unmutated were utilized, including sAML50261 and sAML2008-5.^14 For in vivo efficacy and therapeutic index studies, sAML CD34^+ cells, or normal human cord blood-derived or aged bone marrow-derived HSPCs (CD34^+), were transplanted (50,000-200,000 cells per mouse) intrahepatically into neonatal Rag2^−/−γc^−/− mice, or intravenously into adult NSG-SGM3 mice (Jackson Laboratories, Bar Harbor, ME). A subset of experiments was performed with normal aged bone marrow cells that were transduced with the lentiviral ADAR1 nanoluc-GFP reporter vector prior to transplant. For transplantation into adult mice, animals were irradiated with ^137Cs at a dose of 150 cGy 24 hr before IV transplantation. After engraftment levels reached >1% human CD45^+ hematopoietic cells in the peripheral blood, animals were distributed among treatment groups for treatment with Rebecsinib or vehicle control essentially as previously described, with an increased dosing regimen of twice weekly (versus once weekly in prior studies)^14 and an optimized in vivo formulation (2% w/w EtOH, 5% w/v KOLLIPHOR HS™ 15 in 0.9% saline). For animals that received transplants of cells transduced with the lentiviral ADAR1 nanoluc-GFP reporter, mice were imaged 15 weeks after transplant on the IVIS 200, as previously described.^79 Following treatment with Rebecsinib (five intravenous doses total over a two-week period), hematopoietic tissues (peripheral blood, bone marrow, spleens) were collected and analyzed by flow cytometry as previously described.^14 For splice isoform-specific qRT-PCR or RNA-seq analyses on cells from in vivo studies, human CD34^+ LSC from bone marrows and spleens of engrafted mice were isolated by magnetic bead separation (Miltenyi Biotec).

[3] = CD34+ cells, sAML50261 engrafted mice, vs vehicle

SMILES: CC[C@H](OC)[C@@H](C)[C@H]1O[C@@H]1[C@@H](O)[C@H](C)/C=C/C=C(\C)[C@H]1OC(=O)C[C@H](O)CC[C@@](C)(O)[C@@H](OC(C)=O)/C=C/[C@@H]1C [Rebecsinib]
- MCL1-S isoform expression in human CD34+ cells ([1]; CD34+ cells from bone marrows of treated mice): increase in the pro-apoptotic MCL1-S isoform expression
- CD44-012 splice isoform [1, 3]: significant reduction
- PTK2B-202 splice isoform [1, 3]: significant reduction
- total ADAR1 RNA expression by qRT-PCR [1, 3]: significant reduction in total ADAR1 RNA expression
- MCL1 splice isoform switching ([1]; mice treated with 5 or 10 mg/kg, RNA-seq): splice isoform switching of MCL1-L to MCL1-S
- ADAR1 transcript splicing (RNA-seq) ([1]; sAML50261 engrafted mice, Rebecsinib-treated samples): unique retained intron regions and alternative splice site usage
- frequency of CD45+ hematopoietic cells in bone marrow, peripheral blood, spleen, and thymus ([2]; 10 mg/kg, twice-weekly for two weeks): unchanged
- human CD19+ cells in peripheral blood ([2]; 20 mg/kg): reduction
- human CD45+ and CD19+ cells in bone marrow or spleen ([2]; 20 mg/kg): not in the bone marrow or spleen
- human CD45+ cells in peripheral blood ([2]; 20 mg/kg): reduction
- systemic toxicity ([2]; 2 weeks of dosing at 10 or 20 mg/kg): no evidence of Rebecsinib-related systemic toxicity
- CD19+ B cells in bone marrow, peripheral blood, or spleen ([2]; vs vehicle): no significant reduction
- human CD3+ T cells in thymus or peripheral blood ([2]; vs vehicle): no significant reduction
